# Data as given in ChEMBL document CHEMBL1154345, “Discovery of tricyclic 5,6-dihydro-1H-pyridin-2-ones as novel, potent, and orally bioavailable inhibitors of HCV NS5B polymerase” (Bioorg Med Chem Lett, 2009).
# Tested on: Cynomolgus monkey
# Test: AUC (0 to infinity) in cynomolgus monkey at 0.5 mg/kg, po
# Assay type: ADME, organism-based, Macaca fascicularis, Plasma
# Design: time infinity, dose 0.5 mg/kg, route oral
# Settings: in vivo
row,SMILES,AUC [ng·h/mL]
1,CS(=O)(=O)Nc1ccc2c(c1)S(=O)(=O)N=C(C1=C(O)[C@H]3[C@@H]4CC[C@@H](C4)[C@H]3N(Cc3ccc(F)cc3)C1=O)N2,163

# Tested on: not listed separately
# Test: physchem
# Settings: aqueous medium, pH 7.5
# Description: Aqueous solubility at pH 7.5
row,SMILES,solubility [µM]
1,CS(=O)(=O)Nc1ccc2c(c1)S(=O)(=O)NC(C1=C(O)[C@@H]3CCC[C@@H]3N(Cc3ccc(F)cc3)C1=O)=N2,> 100

# Tested on: not listed separately
# Test: in vitro
# Settings: human, liver microsomes, t1/2
row,SMILES,half-life at 1 µM [h]
1,COc1cc(CN2C(=O)C(C3=NS(=O)(=O)c4cc(NS(C)(=O)=O)ccc4N3)=C(O)[C@@H]3C4CCC(CC4)[C@@H]32)ccc1F,> 1
2,CS(=O)(=O)Nc1ccc2c(c1)S(=O)(=O)N=C(C1=C(O)[C@@H]3C4CCC(CC4)[C@@H]3N(Cc3ccc(F)c(F)c3F)C1=O)N2,> 1
3,CS(=O)(=O)Nc1ccc2c(c1)S(=O)(=O)N=C(C1=C(O)[C@@H]3C4CCC(CC4)[C@@H]3N(Cc3ccc(F)c(F)c3)C1=O)N2,> 1
4,CS(=O)(=O)Nc1ccc2c(c1)S(=O)(=O)N=C(C1=C(O)[C@@H]3C4CCC(CC4)[C@@H]3N(Cc3ccc(F)c(Cl)c3)C1=O)N2,> 1

# Same assay, conditions: human, microsomes, t1/2
row,SMILES,half-life at 1 µM [h]
1,CS(=O)(=O)Nc1ccc2c(c1)S(=O)(=O)N=C(C1=C(O)[C@H]3[C@@H]4CC[C@@H](C4)[C@H]3N(Cc3ccc(F)cc3)C1=O)N2,0.333
2,CS(=O)(=O)Nc1ccc2c(c1)S(=O)(=O)NC(C1=C(O)[C@@H]3CCC[C@@H]3N(Cc3ccc(F)cc3)C1=O)=N2,> 1

# Tested on: Cynomolgus monkey
# Test: AUC (0 to infinity) in cynomolgus monkey at 0.5 mg/kg, iv
# Assay type: ADME, organism-based, Macaca fascicularis, Plasma
# Design: time infinity, dose 0.5 mg/kg, route intravenous
# Settings: in vivo
row,SMILES,AUC [ng·h/mL]
1,CS(=O)(=O)Nc1ccc2c(c1)S(=O)(=O)N=C(C1=C(O)[C@H]3[C@@H]4CC[C@@H](C4)[C@H]3N(Cc3ccc(F)cc3)C1=O)N2,1390

# Tested on: not listed separately
# Test: Clearance in cynomolgus monkey at 0.5 mg/kg, iv
# Assay type: ADME, organism-based, Macaca fascicularis
# Design: dose 0.5 mg/kg, route intravenous
# Settings: in vivo
row,SMILES,clearance [mL/min/kg]
1,CS(=O)(=O)Nc1ccc2c(c1)S(=O)(=O)N=C(C1=C(O)[C@H]3[C@@H]4CC[C@@H](C4)[C@H]3N(Cc3ccc(F)cc3)C1=O)N2,6.5

# Tested on: not listed separately
# Test: Cytotoxicity against human HuH7 cells assessed as GAPDH release
# Assay type: cell-based, Huh-7
# Settings: not given
row,SMILES,CC50 [nM]
1,CS(=O)(=O)Nc1ccc2c(c1)S(=O)(=O)N=C(C1=C(O)[C@H]3[C@@H]4CC[C@@H](C4)[C@H]3N(Cc3ccc(F)cc3)C1=O)N2,> 33000
2,CS(=O)(=O)Nc1ccc2c(c1)S(=O)(=O)NC(C1=C(O)[C@@H]3CCC[C@@H]3N(Cc3ccc(F)cc3)C1=O)=N2,> 100000

# Tested on: Hepatitis C virus
# Test: microbe, parasite or virus in culture
# Assay type: functional, organism-based, Hepacivirus hominis, genotype 1b, Huh-luc/neo-ET
# Settings: Hepatitis C virus, genotype 1b, Huh-luc/neo-ET, 72 h
# Description: Antiviral activity against HCV-1b infected human Huh-luc/neo-ET replicon cells after 72 hrs by luciferase based replicon assay
row,SMILES,EC50 [nM]
1,CS(=O)(=O)Nc1ccc2c(c1)S(=O)(=O)N=C(C1=C(O)[C@H]3[C@@H]4CC[C@@H](C4)[C@H]3N(Cc3ccc(F)cc3)C1=O)N2,550
2,COc1cc(CN2C(=O)C(C3=NS(=O)(=O)c4cc(NS(C)(=O)=O)ccc4N3)=C(O)[C@@H]3C4CCC(CC4)[C@@H]32)ccc1F,2
3,CS(=O)(=O)Nc1ccc2c(c1)S(=O)(=O)N=C(C1=C(O)[C@@H]3C4CCC(CC4)[C@@H]3N(Cc3ccc(F)c(F)c3F)C1=O)N2,8
4,CS(=O)(=O)Nc1ccc2c(c1)S(=O)(=O)N=C(C1=C(O)[C@@H]3C4CCC(CC4)[C@@H]3N(Cc3ccc(F)c(F)c3)C1=O)N2,2
5,CS(=O)(=O)Nc1ccc2c(c1)S(=O)(=O)N=C(C1=C(O)[C@@H]3C4CCC(CC4)[C@@H]3N(Cc3ccc(F)c(Cl)c3)C1=O)N2,2
6,CS(=O)(=O)Nc1ccc2c(c1)S(=O)(=O)NC(C1=C(O)[C@@H]3CCC[C@@H]3N(Cc3ccc(F)cc3)C1=O)=N2,23

# Tested on: not listed separately
# Test: in vitro
# Settings: rhesus monkey, microsomes
# Description: Metabolic stability in monkey liver microsomes assessed as half life at 5 uM
row,SMILES,half-life at 5 µM [h]
1,CS(=O)(=O)Nc1ccc2c(c1)S(=O)(=O)N=C(C1=C(O)[C@H]3[C@@H]4CC[C@@H](C4)[C@H]3N(Cc3ccc(F)cc3)C1=O)N2,> 1
2,CS(=O)(=O)Nc1ccc2c(c1)S(=O)(=O)NC(C1=C(O)[C@@H]3CCC[C@@H]3N(Cc3ccc(F)cc3)C1=O)=N2,> 1

# Tested on: not listed separately
# Test: in vitro
# Settings: human, liver microsomes
# Description: Metabolic stability in human liver microsomes assessed as compound remaining after 60 mins at 1 uM
row,SMILES,"remaining at 1 h, 1 µM [%]"
1,COc1cc(CN2C(=O)C(C3=NS(=O)(=O)c4cc(NS(C)(=O)=O)ccc4N3)=C(O)[C@@H]3C4CCC(CC4)[C@@H]32)ccc1F,67
2,CS(=O)(=O)Nc1ccc2c(c1)S(=O)(=O)N=C(C1=C(O)[C@@H]3C4CCC(CC4)[C@@H]3N(Cc3ccc(F)c(F)c3F)C1=O)N2,100
3,CS(=O)(=O)Nc1ccc2c(c1)S(=O)(=O)N=C(C1=C(O)[C@@H]3C4CCC(CC4)[C@@H]3N(Cc3ccc(F)c(F)c3)C1=O)N2,81
4,CS(=O)(=O)Nc1ccc2c(c1)S(=O)(=O)N=C(C1=C(O)[C@@H]3C4CCC(CC4)[C@@H]3N(Cc3ccc(F)c(Cl)c3)C1=O)N2,100

# Same assay, conditions: human, microsomes
row,SMILES,"remaining at 1 h, 1 µM [%]"
1,CS(=O)(=O)Nc1ccc2c(c1)S(=O)(=O)NC(C1=C(O)[C@@H]3CCC[C@@H]3N(Cc3ccc(F)cc3)C1=O)=N2,85

# Tested on: Hepatitis C virus
# Test: microbe, parasite or virus in culture
# Assay type: functional, organism-based, Hepacivirus hominis, subtype 1a, Huh-lunet
# Settings: Hepatitis C virus, subtype 1a, Huh-lunet, 96 h
# Description: Antiviral activity against HCV-1a infected in human Huh-lunet cells after 4 days by luciferase based replicon assay
row,SMILES,EC50 [nM]
1,CS(=O)(=O)Nc1ccc2c(c1)S(=O)(=O)N=C(C1=C(O)[C@H]3[C@@H]4CC[C@@H](C4)[C@H]3N(Cc3ccc(F)cc3)C1=O)N2,5400
2,COc1cc(CN2C(=O)C(C3=NS(=O)(=O)c4cc(NS(C)(=O)=O)ccc4N3)=C(O)[C@@H]3C4CCC(CC4)[C@@H]32)ccc1F,21
3,CS(=O)(=O)Nc1ccc2c(c1)S(=O)(=O)N=C(C1=C(O)[C@@H]3C4CCC(CC4)[C@@H]3N(Cc3ccc(F)c(F)c3F)C1=O)N2,150
4,CS(=O)(=O)Nc1ccc2c(c1)S(=O)(=O)N=C(C1=C(O)[C@@H]3C4CCC(CC4)[C@@H]3N(Cc3ccc(F)c(F)c3)C1=O)N2,23
5,CS(=O)(=O)Nc1ccc2c(c1)S(=O)(=O)N=C(C1=C(O)[C@@H]3C4CCC(CC4)[C@@H]3N(Cc3ccc(F)c(Cl)c3)C1=O)N2,19
6,CS(=O)(=O)Nc1ccc2c(c1)S(=O)(=O)NC(C1=C(O)[C@@H]3CCC[C@@H]3N(Cc3ccc(F)cc3)C1=O)=N2,550

# Tested on: not listed separately
# Test: in vitro
# Settings: rhesus monkey, microsomes, Stability
# Description: Metabolic stability in monkey liver microsomes assessed as compound remaining after 60 mins at 5 uM
row,SMILES,"remaining at 1 h, 5 µM [%]"
1,CS(=O)(=O)Nc1ccc2c(c1)S(=O)(=O)N=C(C1=C(O)[C@H]3[C@@H]4CC[C@@H](C4)[C@H]3N(Cc3ccc(F)cc3)C1=O)N2,58
2,CS(=O)(=O)Nc1ccc2c(c1)S(=O)(=O)NC(C1=C(O)[C@@H]3CCC[C@@H]3N(Cc3ccc(F)cc3)C1=O)=N2,100

# Tested on: not listed separately
# Test: Oral bioavailability in cynomolgus monkey at 0.5 mg/kg
# Assay type: ADME, organism-based, Macaca fascicularis
# Settings: in vivo
row,SMILES,bioavailability [%]
1,CS(=O)(=O)Nc1ccc2c(c1)S(=O)(=O)N=C(C1=C(O)[C@H]3[C@@H]4CC[C@@H](C4)[C@H]3N(Cc3ccc(F)cc3)C1=O)N2,12
